# Data from patent US11866430B2, “Naphthyridinone compounds useful as T cell activators” (priority 2018, dated 2024).
# Read-outs that look alike come from different tables or passages of the source.
# What was measured:
# human DGKα [1] = molecular target: T1, human DGKα (Homo sapiens (Human), UniProt P23743); test: biochemical
# In short: (§1)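 Enzymes were baculovirus/Sf9 full-length human DGKα or DGKζ with His tag. The substrate was PS/DAG in octyl glucoside micelles, in MOPS pH 7.5 buffer with NaCl, MgCl2, CaCl2 and DTT.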
# human DGKζ [2] = molecular target: T2, human DGKζ (Homo sapiens (Human), UniProt Q13574); test: DGKζ assay (detergent/lipid micelle substrate); type: biochemical; settings: detergent/lipid micelle substrate; read-out: DGKζ IC50
# T2 sequence (Q13574 other isoform, or with tags, fused parts or gaps): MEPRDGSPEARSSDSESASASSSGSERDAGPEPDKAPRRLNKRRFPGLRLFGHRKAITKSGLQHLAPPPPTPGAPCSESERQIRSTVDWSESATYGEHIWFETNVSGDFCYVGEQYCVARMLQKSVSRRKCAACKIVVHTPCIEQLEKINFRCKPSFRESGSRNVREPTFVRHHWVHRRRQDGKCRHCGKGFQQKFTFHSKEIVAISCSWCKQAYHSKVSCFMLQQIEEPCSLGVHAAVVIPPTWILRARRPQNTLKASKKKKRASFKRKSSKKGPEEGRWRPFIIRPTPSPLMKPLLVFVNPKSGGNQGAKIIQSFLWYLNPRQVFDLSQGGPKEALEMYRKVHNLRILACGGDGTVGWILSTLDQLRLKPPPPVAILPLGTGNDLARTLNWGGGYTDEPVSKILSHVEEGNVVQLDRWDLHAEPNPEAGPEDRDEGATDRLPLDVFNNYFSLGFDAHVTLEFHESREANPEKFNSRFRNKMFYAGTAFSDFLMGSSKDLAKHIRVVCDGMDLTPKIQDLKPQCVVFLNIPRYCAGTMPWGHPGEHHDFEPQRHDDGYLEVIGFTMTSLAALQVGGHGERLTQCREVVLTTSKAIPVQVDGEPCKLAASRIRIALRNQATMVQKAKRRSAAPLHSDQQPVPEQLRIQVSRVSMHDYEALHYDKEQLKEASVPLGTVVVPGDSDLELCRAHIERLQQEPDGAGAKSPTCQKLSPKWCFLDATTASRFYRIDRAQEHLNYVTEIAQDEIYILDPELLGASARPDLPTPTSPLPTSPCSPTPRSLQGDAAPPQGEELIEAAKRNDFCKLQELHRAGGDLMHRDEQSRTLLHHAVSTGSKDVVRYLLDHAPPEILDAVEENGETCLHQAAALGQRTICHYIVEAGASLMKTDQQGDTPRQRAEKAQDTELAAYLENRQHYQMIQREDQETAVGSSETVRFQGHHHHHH
# In short: as §1
# naïve human CD8 T cells [3] = test: CellTiter-Glo CD8 T Cell Proliferation Assay; type: cell-based; settings: Homo sapiens, T-cell
# Method: Frozen naïve human CD8 T cells were thawed in RPMI+10% FBS, incubated for 2 h in 37° C., and counted. The 384-well tissue culture plate was coated overnight at 4° C. with 20 μl anti-human CD3 at 0.1 μg/mL in plain RPMI, which was removed off the plate before 20 k/40 μl CD8 T cells with 0.5 μg/mL soluble anti-human CD28 were added to each well. The compounds were echoed to the cell plate immediately after the cells were plated. After 72 h incubation at 37° C. incubator, 10 μl CellTiter-glo reagent (Promega catalog number G7570) was added to each well. The plate was vigorously shaken for 5 mins, incubated at room temperature for another 15 mins and read on Envision for CD8 T cell proliferation. In analysis, 0.1 μg/mL anti-CD3 and 0.5 μg/mL anti-CD28 stimulated CD8 T cell signal was background.
# [4] = test system: Jurkat AP1-luciferase Reporter; test: DGK AP1-Reporter Assay; type: cell-based
# In short: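 Jurkat cells carrying a lentiviral AP1-luciferase reporter received 30 nl compound per well for 20 min at 37 °C and 5% CO2. They were then stimulated for 6 h with anti-CD3 solution at 0.4 μg/mL; reference wells received 4 μg/mL and unstimulated wells medium only. Readout was Steady-Glo luciferase luminescence (RLU).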
# human DGKα [5] = molecular target: T1, human DGKα; test: DGKα LIPGLO assay (extruded liposome substrate); type: biochemical
# In short: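 Human full-length DGKα, His-tagged and produced in Sf9 cells, assayed at 20 nM (4× stock) on extruded liposomes of PS, 0.25 mM DAG and 2.75 mM PC, preincubated 10 min. Reaction started with 300 μM ATP (stock) and ran 1 h in MOPS pH 7.5/MgCl2/CaCl2/DTT buffer.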
# human DGKζ [6] = molecular target: T2, human DGKζ; test: DGKζ LIPGLO assay (extruded liposome substrate); type: biochemical; settings: extruded liposome substrate; read-out: DGKζ LIPGLO IC50
# In short: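 Recombinant DGKζ (Sf9-expressed, Ni/SEC/SP-purified) preincubated 10 min with extruded 100 nm PC/DAG/PS liposomes in 50 mM MOPS pH 7.5, 100 mM NaCl, 10 mM MgCl2, 1 μM CaCl2, 1 mM DTT. Started with 300 uM ATP solution (stock, pre-addition); 1 hr reaction. ADP-Glo luminescence; IC50 from 11 concentrations.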
# [7] = test system: OT-1 antigen-specific CD8+ T cells with MC38 tumor cells; test: Murine Cytotoxic T Lymphocyte Assay (IFN-γ); type: cell-based, mouse
# Excerpt: An antigen-specific cytolytic T-cell (CTL) assay was developed to evaluate functionally the ability of DGKα and DGKζ inhibitors to enhance effector T cell mediated tumor cell killing activity. CD8+ T-cells isolated from the OT-1 transgenic mouse recognize antigen presenting cells, MC38, that present the ovalbumin derived peptide […]. Recognition of the cognate antigen initiates the cytolytic activity of the OT-1 antigen-specific CD8+ T cells.
# Functional CTL cells were generated as follows: OT-1 splenocytes from 8-12 week old mice were isolated and expanded in the presence of the […] peptide at 1 μg/mL and mIL2 at 10 U/mL. After three days, fresh media with mIL2 U/mL was added. On day 5 of the expansion, the CD8+ T cells were isolated and ready for use. Activated CTL cells may be stored frozen for 6 months. […] The cells were washed (3×) with fresh media to remove excess peptide. Finally, CTL cells that were pretreated with DGK inhibitors for 1 hour in a 96-well U bottom plate were combined with the antigen loaded MC38 tumor cells at a 1:10 ratio. The cells were then spun at 700 rpm for 5 min and placed in an incubator overnight at 37° C. After 24 hours, the supernatant was collected for analysis of IFN-γ cytokine levels by AlphaLisa purchased from Perkin Elmer.
# [8] = test system: pre-activated CD4 T cells and Raji cells; test: Raji CD4 T Cell IL2 Assay; type: cell-based; settings: Homo sapiens, Raji
# naïve human CD8 T cells [9] = test: cells; settings: Homo sapiens, T-cell, read-out: HuCD8 INFG Normalized EC50, anti-CD3 plus anti-CD28 as baseline; 3 μM Example 40 co-stimulation as 100% activation
# Method: Frozen naïve human CD8 T cells were thawed in ATM-V media, incubated for 2 h in 37° C., and counted. The 384-well tissue culture plate was coated overnight at 4° C. with 20 μl anti-human CD3 at 0.05 μg/mL in PBS, which was removed off the plate before 40,000 cells per 40 microliters CD8 T cells with 0.1 μg/mL soluble anti-human CD28 were added to each well. The compounds were transferred using an Echo liquid handler to the cell plate immediately after the cells were plated. After 20 h incubation at 37° C. incubator, 3 microliters per well supernatants transferred into a new 384-well white assay plate for cytokine measurement.
# Interferon-γ (IFN-γ) was quantitated using the AlphaLISA kit (Cat #AL217) as described by the manufacturer manual (Perkin Elmer). The counts from each well were converted to IFN-γ concentration […].
# [10] = detergent/lipid micelle substrate, read-out: DGKα IC50
# [11] = Homo sapiens, Jurkat, read-out: API-Luciferase Reporter IC50, Table 3
# [12] = DGKα IC50, detergent/lipid micelle substrate
# [13] = CellTiter-Glo CD8 T cell proliferation, normalized, read-out: CD8 GLO normalized EC50
# [14] = Homo sapiens, Jurkat, read-out: DGKAP1 Lucif Reporter IC50, Table 4
# [15] = read-out: API-Luciferase Reporter IC50, Table 3
# [16] = read-out: msCTL INF-γ IC50, murine CTL IFN-γ (table title reads INF-γ Whole Blood Normalized Agonist EC50)
# [17] = Mus musculus, MC-38, read-out: msCTL INF-γ IC50, murine CTL IFN-γ (table title reads INF-γ Whole Blood Normalized Agonist EC50)
# T1 sequence (P23743 other isoform, or with tags, fused parts or gaps): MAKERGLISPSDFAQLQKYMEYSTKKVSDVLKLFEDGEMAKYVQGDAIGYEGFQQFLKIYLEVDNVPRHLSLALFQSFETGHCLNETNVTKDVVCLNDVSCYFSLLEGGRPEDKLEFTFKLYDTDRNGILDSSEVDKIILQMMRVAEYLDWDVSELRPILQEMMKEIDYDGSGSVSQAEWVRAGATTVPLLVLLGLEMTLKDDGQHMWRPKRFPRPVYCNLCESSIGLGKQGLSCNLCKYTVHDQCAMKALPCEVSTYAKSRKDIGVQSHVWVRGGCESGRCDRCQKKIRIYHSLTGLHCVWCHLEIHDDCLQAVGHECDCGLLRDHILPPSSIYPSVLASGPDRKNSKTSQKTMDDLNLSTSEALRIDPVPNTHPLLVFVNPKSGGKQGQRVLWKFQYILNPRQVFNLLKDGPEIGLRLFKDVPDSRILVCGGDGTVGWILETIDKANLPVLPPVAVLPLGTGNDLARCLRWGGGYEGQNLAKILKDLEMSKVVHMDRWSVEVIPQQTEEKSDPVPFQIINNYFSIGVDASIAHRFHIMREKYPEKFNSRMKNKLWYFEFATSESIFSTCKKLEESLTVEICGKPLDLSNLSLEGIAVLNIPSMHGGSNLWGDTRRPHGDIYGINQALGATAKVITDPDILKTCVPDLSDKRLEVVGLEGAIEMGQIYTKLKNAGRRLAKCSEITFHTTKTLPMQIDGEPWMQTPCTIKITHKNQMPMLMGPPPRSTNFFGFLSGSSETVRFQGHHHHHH
Compound,IC50 (human DGKα [1]; [10]) [nM],IC50 (human DGKζ [2]) [nM],"IC50 [4, 11] [nM]",EC50 (naïve human CD8 T cells [3]; [13]) [nM],"IC50 [4, 14] [nM]",IC50 (human DGKα [5]) [nM],IC50 (human DGKζ [6]) [nM],"IC50 [7, 17] [nM]",other results
"CCC(c1ccc(F)cc1)N1CCN(c2c([N+](=O)[O-])c(=O)n(C)c3ccc(C#N)nc23)CC1 (racemic) [Example 32, 8-{4-[1-(4-fluorophenyl)propyl]piperazin-1-yl}-5-methyl-7-nitro-6-oxo-5,6-dihydro-1,5-naphthyridine-2-carbonitrile]",190,9400,360,,,,,,"EC50 (naïve human CD8 T cells [3]; read-out: CD8 GLO normalized EC50, CellTiter-Glo CD8 T cell proliferation, normalized): 180 nM"
"Cn1c(=O)c([N+](=O)[O-])c(N2CCN(C(c3ccc(F)cc3)C3CC3)CC2)c2nc(C#N)ccc21 (racemic) [Example 49, 8-(4-(cyclopropyl(4-fluorophenyl)methyl)piperazin-1-yl)-5-methyl-7-nitro-6-oxo-5,6-dihydro-1,5-naphthyridine-2-carbonitrile]",,> 240000,,170,1700,,,,IC50 (human DGKα [1]; [12]): 180 nM
"C#CCn1c(=O)c([N+](=O)[O-])c(N2CCN(C(c3ccc(F)cc3)c3ccccc3OC)CC2)c2nc(C#N)ccc21 (racemic) [Example 129, 8-(4-((4-fluorophenyl)(2-methoxyphenyl)methyl)piperazin-1-yl)-7-nitro-6-oxo-5-(prop-2-yn-1-yl)-5,6-dihydro-1,5-naphthyridine-2-carbonitrile]",4200,180,,60,870,,,,
"COc1ccccc1C(c1ccc(F)cc1)N1CCN(c2c(C#N)c(=O)n(CC3CC3)c3ccc(Br)nc23)CC1 (racemic) [Example 158, 6-bromo-1-(cyclopropylmethyl)-4-(4-((4-fluorophenyl)(2-methoxyphenyl)methyl)piperazin-1-yl)-2-oxo-1,2-dihydro-1,5-naphthyridine-3-carbonitrile]",> 240000,> 240000,4590,920,10000,,,,
"COc1cc(F)ccc1C(c1ccc(F)cc1)N1CCN(c2c(C#N)c(=O)n(C)c3ccc(C#N)nc23)CC1 (racemic) [Example 405, 8-{4-[(4-fluoro-2-methoxyphenyl)(4-fluorophenyl)methyl]piperazin-1-yl}-5-methy-6-oxo-5,6-dihydro-L5-naphthyridine-2,7-dicarbonitrile]",,,,20,,560,860,,
"C#CCn1c(=O)c([N+](=O)[O-])c(N2CCN(C(c3ccc(F)cc3)c3ccccc3O)CC2)c2nc(C#N)ccc21 (single isomer, unassigned) [Example 133, 8-(4-((4-fluorophenyl)(2-hydroxyphenyl)methyl)piperazin-1-yl)-7-nitro-6-oxo-5-(prop-2-yn-1-yl)-5,6-dihydro-1,5-naphthyridine-2-carbonitrile]",,140,,,,,,,"IC50 (human DGKα [1]; [12]): 3300 nM; IC50 [4, 15]: 280 nM; IC50 [7, 16]: 60 nM"
"C#CCn1c(=O)c([N+](=O)[O-])c(N2CCN(C(c3ccc(F)cc3)c3ccccc3O)CC2)c2nc(C#N)ccc21 (single isomer, unassigned) [Example 134, 8-(4-((4-fluorophenyl)(2-hydroxyphenyl)methyl)piperazin-1-yl)-7-nitro-6-oxo-5-(prop-2-yn-1-yl)-5,6-dihydro-1,5-naphthyridine-2-carbonitrile]",31000,4200,,,,,,,"IC50 [4, 15]: 600 nM; IC50 [7, 16]: 1140 nM"
"Cn1c(=O)c(C#N)c(N2CCN(Cc3ccc(O)cc3)CC2)c2nc(Cl)ccc21 [Example 362, 6-chloro-4-{4-[(4-hydroxyphenyl)methyl]piperazin-1-yl}-1-methyl-2-oxo-1,2-dihydro-1,5-naphthyridine-3-carbonitrile]",69,> 240000,8370,,,,,10000,IC50 [8]: > 100000 nM
"Cc1cccc(CN2CCN(c3c(C#N)c(=O)n(C)c4ccc(Cl)nc34)CC2)c1 [Example 385, 6-chloro-1-methyl-1-{4-4[(3-methylphenyl)methyl]piperazin-1-yl}-2-oxo-1,2-dihydro-1,5-naphthyridine-3-carbonitrile]",350,150000,60,,,,,4090,
"CC(c1ccc(F)cc1)N1CCN(c2c(C#N)c(=O)n(C)c3ccc(Cl)nc23)CC1 (stereo not drawn) [Example 387A, 6-chloro-4-{4-[1-(4-fluorophenyl)ethyl]piperazin-1-yl}-1-methyl-2-oxo-1,2-dihydro-1,5-naphthyridine-3-carbonitrile]",,,,10000,10000,,,,
"COc1cc(F)ccc1C(c1ccc(F)cc1)N1CCN(c2cc(=O)n(C)c3ccc(C#N)nc23)CC1 (stereo not drawn) [Example 392, 8-{4-[(4-fluoro-2-methoxyphenyl)(4-fluorophenyl)methyl]piperazin-1-yl}-5-methyl-6-oxo-5,6-dihydro-1,5-naphthyridine-2-carbonitrile]",,,,,,> 240000,2300,1850,EC50 (naïve human CD8 T cells [9]): 230 nM
"Cn1c(=O)c([N+](=O)[O-])c(N2CCN([C@@H](c3ccccc3)c3ccc(Cl)cc3)CC2)c2nc(C#N)ccc21 [Example 399, 8-{4-[(S)-(4-chlorophenyl)(phenyl)methyl]piperazin-1-yl}-5-methyl-7-nitro-6-oxo-5,6-dihydro-1,5-naphthyridine-2-carbonitrile]",,,,,,6400,160,410,EC50 (naïve human CD8 T cells [9]): 20 nM
"Cn1c(=O)c(C#N)c(N2CCN([C@@H](c3ccccc3)c3ccc(Cl)cc3)CC2)c2nc(Br)ccc21 [Example 428, 6-bromo-4-{4-[(S)-(4-chlorophenyl)(phenyl)methyl]piperazin-1-yl}-1-methyl-2-oxo-1,2-dihydro-1,5-naphthyridine-3-carbonitrile]",,,,,,10000,5200,590,EC50 (naïve human CD8 T cells [9]): 30 nM
